Where a SMILES comes first, the peptide text is derived from it.
Target: T1, BTLA/HVEM complex (Homo sapiens, UniProt Q92956)
T1 construct: purchased ACROBiosystems HVM-H52E9 (HVEM-His); BTA-H5255 (BTLA-Fc)
T1 sequence (Q92956 39-202 limits assumed): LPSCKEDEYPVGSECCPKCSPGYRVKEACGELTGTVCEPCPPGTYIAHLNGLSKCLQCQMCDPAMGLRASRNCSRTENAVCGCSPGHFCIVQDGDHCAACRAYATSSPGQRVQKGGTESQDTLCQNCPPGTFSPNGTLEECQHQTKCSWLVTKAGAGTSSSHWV
Test: ELISA inhibition of BTLA/HVEM complex formation
Assay type: biochemical
Details: peptide 16.67 μM, immobilized HVEM-His, BTLA-Fc 5 μg/mL, PBS-T, 37 °C, mean of three independent experiments
Procedure: In the subsequent stage of the study, the potential of the obtained compounds to inhibit the interaction between BTLA and HVEM proteins was evaluated using ELISA, following the methodology described in our previous studies. , HVEM was immobilized on the plate and incubated with peptides at three different concentrations, followed by the addition of Fc-tagged BTLA. Detection was carried out using horseradish peroxidase (HRP) conjugated with anti-human IgG and 3,3′,5,5′-tetramethylbenzidine (TMB) as a substrate. Signal intensity was directly proportional to the amount of BTLA bound to HVEM and inversely proportional to the inhibitory activity of the tested peptides. As a control, BTLA and HVEM were incubated in the absence of peptides.
Recombinant human HVEM protein with a His tag was purchased from ACROBiosystems, Newark, DE, USA (no. HVM-H52E9). Recombinant human protein BTLA-Fc and LIGHT-Fc were also purchased from ACROBiosystems, Newark, DE, USA (no. BTA-H5255 and no. LIT-H5269).
ELISA was performed using transparent 96-well NUNC Maxisorp plates (Thermo Fisher Scientific, Waltham, MA, USA). In the first step, HVEM-His, dissolved in PBS at a concentration of 5 μg/mL (100 μL/well), was immobilized on the plate by overnight incubation at 4 °C. Wells were then blocked with 5% bovine serum albumin (BSA) in PBS containing 0.05% Tween 20 (PBS-T) (200 μL/well). Next, peptides dissolved in PBS-T at concentrations of 150, 50, and 16.67 μM were added to the wells (100 μL/well). Following this, BTLA-Fc in PBS-T at a concentration of 5 μg/mL (100 μL/well) was applied. In the next step, goat anti-human IgG antibody conjugated with the HRP (Bio-Rad Laboratories, Hercules, CA, USA) in PBS-T at a ratio of 1:30,000 (v/v) was added (100 μL/well). Colorimetric detection was performed by adding 100 μL of TMB substrate (Thermo Fisher Scientific, Waltham, MA, USA) to each well and incubating the plate in the dark. At each stage, plates were incubated at 37 °C with continuous shaking for 1 h (except TMB, which was incubated for 15 min). After each incubation, wells were washed five times with PBS-T. Absorbance was measured using an Infinite M200 Pro Reader (Tecan Group Ltd., Männedorf, Switzerland) at wavelengths of 650 nm (measurement wavelength) and 492 nm (reference wavelength). Inhibition assays for the HVEM/LIGHT complex were conducted using the same approach, except that LIGHT was used instead of BTLA. The BTLA/HVEM and HVEM/LIGHT complexes without peptides served as controls. Inhibition percentages were calculated based on the assumption that PBS-T has no effect on the formation of BTLA/HVEM or HVEM/LIGHT complexes. Each ELISA was conducted in at least three independent replicates. The data were analyzed using GraphPad Prism 8 software (San Diego, CA, USA).

With `CC[C@@H]1NC(=O)[C@@H](NC(=O)[C@H](CCC(N)=O)NC(=O)[C@H](Cc2ccc(O)cc2)NC(C)=O)CSSC[C@@H](C(=O)N[C@@H](Cc2c[nH]cn2)C(=O)N[C@@H](Cc2ccccc2)C(=O)N[C@@H](Cc2ccccc2)C(N)=O)NC(=O)[C@H](CCC(N)=O)NC(=O)[C@H](CC(C)C)NC(=O)[C@H](CCCNC(=N)N)NC(=O)[C@H]([C@@H](C)CC)NC(=O)CNC(=O)[C@H](CO)NC(=O)[C@H](CCCCN)NC(=O)[C@H](CCC(N)=O)NC(=O)[C@H](CO)NC(=O)[C@H](CCCNC(=N)N)NC(=O)[C@H](C)NC1=O` [A5, CD160(110–128) ^(C113X,G125C)] (HELM PEPTIDE1{[ac].Y.Q.C.[Abu].A.R.S.Q.K.S.G.I.R.L.Q.C.H.F.F.[am]}$PEPTIDE1,PEPTIDE1,4:R3-17:R3$$$V2.0) the inhibition at 16.67 µM was 6.24%.
